Experimental data: paper PMC10503797, “Allosteric modulator potentiates β2AR agonist–promoted bronchoprotection in asthma models” (The Journal of Clinical Investigation, 2023)
Several values for one entry are separate records, joined by “and”; a condition that tells them apart may be missing. Equal values may be shown once.

Molecular target: guinea pig β2AR (Cavia porcellus, UniProt Q8K4Z4)
Experiment: 125I-CYP radioligand competition binding, guinea pig β2AR

Chain of guinea pig β2AR (Q8K4Z4 whole entry): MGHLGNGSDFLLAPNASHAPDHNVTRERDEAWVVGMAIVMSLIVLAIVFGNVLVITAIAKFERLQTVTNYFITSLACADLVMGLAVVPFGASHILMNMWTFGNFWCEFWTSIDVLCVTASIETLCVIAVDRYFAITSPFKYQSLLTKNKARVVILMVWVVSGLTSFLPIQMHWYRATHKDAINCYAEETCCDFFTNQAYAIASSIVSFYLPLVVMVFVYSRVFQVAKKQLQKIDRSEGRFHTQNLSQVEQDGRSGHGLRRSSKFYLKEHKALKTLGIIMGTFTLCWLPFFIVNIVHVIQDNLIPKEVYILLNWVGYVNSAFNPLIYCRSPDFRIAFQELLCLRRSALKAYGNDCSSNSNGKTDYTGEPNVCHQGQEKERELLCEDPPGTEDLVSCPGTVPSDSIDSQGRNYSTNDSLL

For `COc1ccc(Sc2ccc(S(=O)(=O)N(C)C(C)C)cc2C(=O)N[C@H](CC(N)=O)Cc2ccc(C(C)(C)C)cc2)cc1` [Cmpd-6], the “125I-CYP binding, ISO competition curve (Figure 4B)” value (from here on “125I-CYP binding … (Figure 4B)”) (Cmpd-6 [1 uM], Log [ISO] (M) -4.49485) was 1.389 and 1.151 and 1.419 and 1.486 and 1.375, the “125I-CYP binding … (Figure 4B)” value (Cmpd-6 [1 uM], Log [ISO] (M) -5.69897) was 11.9867 and 9.239 and 16.2618 and 13.198 and 14.4523 and the “125I-CYP binding … (Figure 4B)” value (Cmpd-6 [1 uM], Log [ISO] (M) -6.90309) was 60.3981 and 44.4601 and 52.8751 and 61.5704 and 63.6634. For the same compound, the “125I-CYP binding … (Figure 4B)” value (Cmpd-6 [1 uM], Log [ISO] (M) -7.50515) was 85.4929 and 72.4739 and 91.4188 and 87.166 and 89.8825, the “125I-CYP binding … (Figure 4B)” value (Cmpd-6 [1 uM], Log [ISO] (M) -8.70927) was 98.0858 and 100.299 and 96.4593 and 97.8108 and 99.3392 and the “125I-CYP binding … (Figure 4B)” value (Cmpd-6 [1 uM], Log [ISO] (M) -9.31133) was 102.219 and 97.3579 and 98.2032 and 100.895 and 101.354. For the same compound, the “125I-CYP binding … (Figure 4B)” value (Cmpd-6 [1 uM], Log [ISO] (M) -9.91339) was 101.18 and 98.3743 and 98.3138 and 101.016 and 101.111, the “125I-CYP binding … (Figure 4B)” value (Cmpd-6 [1 uM], Log [ISO] (M) -11 (DMSO)) was 99.0003 and 102.579 and 98.6421 and 100.222 and 97.6049 and the “125I-CYP binding … (Figure 4B)” value (Cmpd-6 [5 uM], Log [ISO] (M) -7.50515) was 44.1147 and 80.7404 and 64.2013 and 72.7308 and 72.5102. The “125I-CYP binding … (Figure 4B)” value (Cmpd-6 [5 uM], Log [ISO] (M) -8.70927) was 91.2908 and 98.8095 and 98.5241 and 100.522 and 98.3672, the “125I-CYP binding … (Figure 4B)” value (Cmpd-6 [5 uM], Log [ISO] (M) -9.31133) was 97.2169 and 98.4924 and 100.303 and 100.814 and 103.36 and the “125I-CYP binding … (Figure 4B)” value (Cmpd-6 [5 uM], Log [ISO] (M) -9.91339) was 98.5199 and 97.6422 and 100.698 and 101.104 and 99.2184. The “125I-CYP binding … (Figure 4B)” value (Cmpd-6 [5 uM], Log [ISO] (M) -11 (DMSO)) was 103.509 and 97.6444 and 99.5117 and 98.3736 and 96.5817, the “125I-CYP binding, Alb competition curve (Figure 4E)” value (shortened to “125I-CYP binding … (Figure 4E)”) (Cmpd-6 [25 uM], Log [Alb] (M) -4.49485) was 2.733 and 2.385 and 4.038 and 2.554 and the “125I-CYP binding … (Figure 4E)” value (Cmpd-6 [25 uM], Log [Alb] (M) -5.09691) was 4.618 and 4.73 and 8.896 and 4.926. The “125I-CYP binding … (Figure 4E)” value (Cmpd-6 [25 uM], Log [Alb] (M) -6.30103) was 28.5337 and 34.114 and 50.4761 and 33.3615, the “125I-CYP binding … (Figure 4E)” value (Cmpd-6 [25 uM], Log [Alb] (M) -6.90309) was 59.5755 and 62.9432 and 76.3108 and 62.8869 and the “125I-CYP binding … (Figure 4E)” value (Cmpd-6 [25 uM], Log [Alb] (M) -7.50515) was 81.8149 and 87.2785 and 93.3109 and 87.5413. The “125I-CYP binding … (Figure 4E)” value (Cmpd-6 [25 uM], Log [Alb] (M) -8.10721) was 96.1096 and 95.2866 and 96.5894 and 97.0774, the “125I-CYP binding … (Figure 4E)” value (Cmpd-6 [25 uM], Log [Alb] (M) -8.70927) was 98.1238 and 100.926 and 100.115 and 99.527 and the “125I-CYP binding … (Figure 4E)” value (Cmpd-6 [25 uM], Log [Alb] (M) -9.31133) was 102.128 and 99.4951 and 103.592 and 101.926. For the same compound, the “125I-CYP binding … (Figure 4E)” value (Cmpd-6 [25 uM], Log [Alb] (M) -9.91339) was 98.9354 and 102.792 and 101.444 and 100.327, the “125I-CYP binding … (Figure 4E)” value (Cmpd-6 [25 uM], Log [Alb] (M) -11 (DMSO)) was 100.906 and 97.7704 and 98.4446 and 97.5175 and the “125I-CYP binding, FEN competition curve (Figure 4D)” value (“125I-CYP binding … (Figure 4D)” below) (Cmpd-6 [25 uM], Log [FEN] (M) -4.49485) was 1.409 and 1.866 and 2.061 and 1.201. For the same compound, the “125I-CYP binding … (Figure 4D)” value (Cmpd-6 [25 uM], Log [FEN] (M) -6.90309) was 30.825 and 36.7624 and 55.798 and 36.3648, the “125I-CYP binding … (Figure 4D)” value (Cmpd-6 [25 uM], Log [FEN] (M) -7.50515) was 56.6182 and 66.5595 and 80.6389 and 63.8444 and the “125I-CYP binding … (Figure 4D)” value (Cmpd-6 [25 uM], Log [FEN] (M) -8.10721) was 85.2358 and 86.7408 and 95.8272 and 89.5788. For the same compound, the “125I-CYP binding … (Figure 4D)” value (Cmpd-6 [25 uM], Log [FEN] (M) -8.70927) was 93.1548 and 97.3369 and 100.273 and 95.4081, the “125I-CYP binding … (Figure 4D)” value (Cmpd-6 [25 uM], Log [FEN] (M) -9.31133) was 99.631 and 100.281 and 99.1957 and 101.634 and the “125I-CYP binding … (Figure 4D)” value (Cmpd-6 [25 uM], Log [FEN] (M) -9.91339) was 99.9681 and 102.324 and 101.127 and 101.353. The “125I-CYP binding … (Figure 4D)” value (Cmpd-6 [25 uM], Log [FEN] (M) -11 (DMSO)) was 101.956 and 98.6366 and 99.5621 and 98.3857, the “125I-CYP binding … (Figure 4B)” value (Cmpd-6 [25 uM], Log [ISO] (M) -5.09691) was 1.411 and 1.274 and 2.38 and 2.249 and 1.1946 and the “125I-CYP binding … (Figure 4B)” value (Cmpd-6 [25 uM], Log [ISO] (M) -6.90309) was 12.3266 and 14.2939 and 23.2433 and 22.4081 and 20.0289. For the same compound, the “125I-CYP binding … (Figure 4B)” value (Cmpd-6 [25 uM], Log [ISO] (M) -7.50515) was 28.0286 and 51.334 and 48.5832 and 48.3069 and 46.746, the “125I-CYP binding … (Figure 4B)” value (Cmpd-6 [25 uM], Log [ISO] (M) -8.70927) was 84.2583 and 93.8004 and 93.7052 and 91.4625 and 91.5747 and the “125I-CYP binding … (Figure 4B)” value (Cmpd-6 [25 uM], Log [ISO] (M) -9.31133) was 94.8589 and 99.2775 and 101.069 and 99.6071 and 99.1245. The “125I-CYP binding … (Figure 4B)” value (Cmpd-6 [25 uM], Log [ISO] (M) -9.91339) was 97.1607 and 99.3939 and 99.6796 and 99.8936 and 100.155, the “125I-CYP binding … (Figure 4B)” value (Cmpd-6 [25 uM], Log [ISO] (M) -11 (DMSO)) was 103.398 and 98.8874 and 98.4421 and 101.926 and 100.783 and the “125I-CYP binding, Salm competition curve (Figure 4F)” value (Cmpd-6 [25 uM], Log [Salm] (M) -5.09691) was 4.291 and 4.483 and 7.953 and 4.185. The “125I-CYP binding, Salm competition curve (Figure 4F)” value (Cmpd-6 [25 uM], Log [Salm] (M) -5.69897) was 11.1208 and 11.4804 and 19.9536 and 11.286.
